Measurements reported in US10086028B2, “Method for treating vascular inflammation, improving skin beauty and improving male sexual function using ginseng berry” (AMOREPACIFIC CORPORATION, priority 2007, dated 2018).

Assays:
type I procollagen = experiment: Type I procollagen assay in human fibroblasts (ELISA); type: cell-based; details: 3rd day, 10 ng/mL
Method: Human fibroblasts were cultured on a 12-well plate incubator to a concentration of 10^5 cells/well. Then, the medium was replaced by one including the ginseng berry extract of Example 1 (1 μg/mL and 10 μg/mL), the ginseng berry saponin concentrate of Example 2 (10 μg/mL), the ginseng root extract of Comparative Example 1 (10 μg/mL) or ginsenosides Rg1, Rg2, Rh1 or Re (10 μg/mL). 10 ng/mL transforming growth factor β (TGF-β) was used as a positive control substance.
On the 3rd day of culturing, the cells were harvested and the quantity of produced type I procollagen was analyzed using ELISA. The result was calculated as a relative value with respect to the negative control group, which was not treated with a test substance.

[1] = test system: matrix metalloproteinase I (MMP-1); experiment: Inhibition of UVB-induced MMP-1 expression in human fibroblasts (ELISA); type: cell-based; details: UVB 40 mJ/cm^2, 2nd day, relative to UV control; 10 ng/mL
Method: Human fibroblasts were cultured on a 12-well plate incubator to a concentration of 10^5 cells/well. Then, after irradiating UVB at 40 mJ/cm^2, the medium was replaced by one including the ginseng berry extract of Example 1 (1 μg/mL and 10 μg/mL), the ginseng berry saponin concentrate of Example 2 (10 μg/mL), the ginseng root extract of Comparative Example 1 (10 μg/mL) or ginsenosides Rg1, Rg2, Rh1 or Re (10 μg/mL). 10 ng/mL TGF-β was used as a positive control substance. On the 2nd day of culturing, the cells were harvested and the quantity of produced matrix metalloproteinase I (MMP-1) was analyzed using ELISA. The result was calculated as a relative value with respect to the control group, which was irradiated with UV without treating with a test substance.

[2] = test system: melanocytes (MeI-Ab cells); experiment: Inhibition of melanin generation in mouse melanocytes; type: cell-based, C57BL/6 mouse; details: added for 3 consecutive days; sample 10 μg/mL
Method: Inhibition of melanin generation in mouse melanocytes was evaluated in order to confirm the effect of the ginseng berry extract of Example 1 of inhibiting melanin generation.
First, melanocytes (MeI-Ab cells) derived from C57BL/6 mouse [Dooley, T. P. et al, Skin Pharmacol., 7, pp. 188-200] were cultured in Dulbecco's modified Eagle's medium (DMEM) containing 10% FBS, 100 nM 2-O-tetradecanoylphorbol-13-acetate and 1 nM cholera toxin under the condition of 37° C., 5% CO2. The cultured MeI-Ab cells were separated using 0.25% trypsin-EDTA, and cultured on a 24-well plate to a concentration of 10^5 cells/well. Starting from day 2, the ginseng berry extract of Example 1 (1 μg/mL, 10 μg/mL and 100 μg/mL), the ginseng berry saponin concentrate of Example 2 (10 μg/mL), the ginseng root extract of Comparative Example 1 (10 μg/mL) or ginsenosides Rg1, Rg2, Rh1 or Re (10 μg/mL) was added for 3 consecutive days. Hydroquinone (10 μg/mL) was used as a positive control substance. Then, after removing the medium and washing with PBS, the cells were dissolved with 1 N sodium hydroxide. Absorbance was measured at 400 nm, and melanin generation inhibition ratio was calculated by Equation 3.

[3] = test system: endothelial cells (HUVEC); experiment: Increase of NO generation in endothelial cells (Test Example 12); type: cell-based
Method: Endothelial cells were adhered on a gelatin-coated 24-well plate, with a density of 2.5×10^4 cells/well. The cells were cultured for 12 hours using a growth medium. The endothelial cells were pre-treated for 12 hours, using the ginseng berry extract, the ginseng berry saponin concentrate or the ginseng root extract (Examples 1-2 and Comparative Example 1). Then, they, including a non-treated group, were treated with 10 μmol/L DAF-FM diacetate (Molecular Probe, Oreg.) at 37° C. for 30 minutes in an FBS-free M199 medium. Subsequently, the endothelial cells were washed 3 times with an FBS-free M199 medium, put in a parallel plate flow chamber, and stimulated with light isolated from a mercury lamp. Excitation wavelength was 488 nm. Fluorescence of 515 nm is emitted when DAF binds with NO.
Increase of generation of NO, which is known as an important signal transduction substance related with penile erection, in endothelial cells was observed after treating with the ginseng berry extract. Experiment was carried out in a manner substantially the same as that of Test Example 2, but L-arginine was treated together with the ginseng root extract of Comparative Example 1 and the ginseng berry extract of Example 1. […]

[4] = test system: human HaCaT keratinocytes; experiment: Antioxidative effect: removal of UV-generated ROS in HaCaT keratinocytes; type: cell-based; details: ROS generated by UV in HaCaT; sample 10 μg/mL (Trolox given as (10))
From the text: Antioxidative effect of the ginseng berry extract was investigated by comparing the ability of removing reactive oxygen species (ROS) generated in human HaCaT keratinocytes by ultraviolet (UV) radiation.

In the case of transforming growth factor β [TGF-β], the “Procollagen activity relative to negative control (%)” value (type I procollagen) is reported as 145% and the “MMP-1 expression (%)” value [1] is reported as 65%.

For `Oc1ccc(O)cc1` [Hydroquinone], the “Melanin generation inhibition ratio (%)” value [2] was 39%.

`N=C(N)NCCC[C@H](N)C(=O)O` [L-Arginine] was tested, and the “increased NO generation with respect to the negative control group” value ([3]; 250 μM) was “about 2.7 times” and the “increased NO generation with respect to the negative control group” value ([3]; 500 μM) was ~5.5 times.

`Cc1c(C)c2c(c(C)c1O)CCC(C)(C(=O)O)O2` (stereo not drawn) [Trolox] was tested, and the “Antioxidative effect (%)” value [4] was 33%.
